Data as given in PubChem BioAssay AID2060898 (Molecular Pharmacology Branch, DTP, NCI, 2025).

Tested on: 616215-338-R-J1-PDC complex spheroid viability
Assay: Anticancer human tumor 616215-338-R-J1-PDC patient-derived colon adenocarcinoma cell line growth inhibition [RAS]
Conditions: for IC50: curve of first compound; for viability, T/C: stronger effect = lower value
How it was run: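 Tumour cells grown as complex spheroids with HUVEC endothelial cells and mesenchymal stem cells, treated with RAS pathway inhibitor combinations. Each agent spans half-log steps from near clinical Cmax, or 10 microM where Cmax is unknown.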
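Note: spheroids exposed to agents for seven days before viability readout.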
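Throughout, for viability, T/C: 100% = DMSO vehicle control viability.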

Work on CCc1c2c(nc3ccc(O)cc13)-c1cc3c(c(=O)n1C2)COC(=O)[C@]3(O)CC + C=CC(=O)N1CCN(c2nc(OCC3CCCN3C)nc3c(F)c(-c4nc(N)cc(C)c4C(F)(F)F)c(Cl)cc23)C(C)C1 yielded an IC50 (second compound 0.00316 µM) of 8.93 nM, an IC50 (second compound 0.01 µM) of 8.71 nM and an IC50 (second compound 0.0316 µM) of 13.8 nM. For the same compound, the IC50 (second compound 0.1 µM) was 9.38 nM, the IC50 (second compound 0.316 µM) was 14.1 nM and the IC50 (second compound 1 µM) was 8.32 nM. For the same compound, the viability, T/C (second compound 0.00316 µM, first compound 0.000949 µM) was 98%, the viability, T/C (second compound 0.00316 µM, first compound 0.003 µM) was 103% and the viability, T/C (second compound 0.00316 µM, first compound 0.00949 µM) was 47.2%. The viability, T/C (second compound 0.00316 µM, first compound 0.03 µM) was 27%, the viability, T/C (second compound 0.00316 µM, first compound 0.0949 µM) was 20.6% and the viability, T/C (second compound 0.00316 µM, first compound 0.3 µM) was 16.9%. For the same compound, the viability, T/C (second compound 0.01 µM, first compound 0.000949 µM) was 99.3%, the viability, T/C (second compound 0.01 µM, first compound 0.003 µM) was 106% and the viability, T/C (second compound 0.01 µM, first compound 0.00949 µM) was 45.8%. It also gave a viability, T/C (second compound 0.01 µM, first compound 0.03 µM) of 30.2%, a viability, T/C (second compound 0.01 µM, first compound 0.0949 µM) of 23.6% and a viability, T/C (second compound 0.01 µM, first compound 0.3 µM) of 17.6%. For the same compound, the viability, T/C (second compound 0.0316 µM, first compound 0.000949 µM) was 107%, the viability, T/C (second compound 0.0316 µM, first compound 0.003 µM) was 115% and the viability, T/C (second compound 0.0316 µM, first compound 0.00949 µM) was 59.9%. The viability, T/C (second compound 0.0316 µM, first compound 0.03 µM) was 32.5%, the viability, T/C (second compound 0.0316 µM, first compound 0.0949 µM) was 18.4% and the viability, T/C (second compound 0.0316 µM, first compound 0.3 µM) was 14.9%. It also gave a viability, T/C (second compound 0.1 µM, first compound 0.000949 µM) of 112%, a viability, T/C (second compound 0.1 µM, first compound 0.003 µM) of 109% and a viability, T/C (second compound 0.1 µM, first compound 0.00949 µM) of 48.5%. The viability, T/C (second compound 0.1 µM, first compound 0.03 µM) was 29.4%, the viability, T/C (second compound 0.1 µM, first compound 0.0949 µM) was 20.1% and the viability, T/C (second compound 0.1 µM, first compound 0.3 µM) was 16.5%. For the same compound, the viability, T/C (second compound 0.316 µM, first compound 0.000949 µM) was 110%, the viability, T/C (second compound 0.316 µM, first compound 0.003 µM) was 98.1% and the viability, T/C (second compound 0.316 µM, first compound 0.00949 µM) was 57.7%. The viability, T/C (second compound 0.316 µM, first compound 0.03 µM) was 32.4%, the viability, T/C (second compound 0.316 µM, first compound 0.0949 µM) was 16.3% and the viability, T/C (second compound 0.316 µM, first compound 0.3 µM) was 12.8%. For the same compound, the viability, T/C (second compound 1 µM, first compound 0.000949 µM) was 106%, the viability, T/C (second compound 1 µM, first compound 0.003 µM) was 110% and the viability, T/C (second compound 1 µM, first compound 0.00949 µM) was 42.5%. The viability, T/C (second compound 1 µM, first compound 0.03 µM) was 28.2%, the viability, T/C (second compound 1 µM, first compound 0.0949 µM) was 22.9% and the viability, T/C (second compound 1 µM, first compound 0.3 µM) was 15.4%.

In the case of Nc1ccn(C2OC(CO)C(O)C2(F)F)c(=O)n1 (centres undefined) + C=CC(=O)N1CCN(c2nc(OCC3CCCN3C)nc3c(F)c(-c4nc(N)cc(C)c4C(F)(F)F)c(Cl)cc23)C(C)C1, the IC50 (second compound 0.00316 µM) is reported as 11.8 nM, the IC50 (second compound 0.01 µM) is reported as 11.7 nM and the IC50 (second compound 0.0316 µM) is reported as 14.7 nM. It also gave an IC50 (second compound 0.1 µM) of 15.4 nM, an IC50 (second compound 0.316 µM) of 8.51 nM and an IC50 (second compound 1 µM) of 9.78 nM. For the same compound, the viability, T/C (second compound 0.00316 µM, first compound 0.00316 µM) was 96.1%, the viability, T/C (second compound 0.00316 µM, first compound 0.01 µM) was 53.2% and the viability, T/C (second compound 0.00316 µM, first compound 0.0316 µM) was 29.3%. The viability, T/C (second compound 0.00316 µM, first compound 0.1 µM) was 14.4%, the viability, T/C (second compound 0.00316 µM, first compound 0.316 µM) was 14.2% and the viability, T/C (second compound 0.00316 µM, first compound 1 µM) was 17.6%. For the same compound, the viability, T/C (second compound 0.01 µM, first compound 0.00316 µM) was 109%, the viability, T/C (second compound 0.01 µM, first compound 0.01 µM) was 54.9% and the viability, T/C (second compound 0.01 µM, first compound 0.0316 µM) was 18.7%. It also gave a viability, T/C (second compound 0.01 µM, first compound 0.1 µM) of 15.8%, a viability, T/C (second compound 0.01 µM, first compound 0.316 µM) of 12.9% and a viability, T/C (second compound 0.01 µM, first compound 1 µM) of 16.3%. For the same compound, the viability, T/C (second compound 0.0316 µM, first compound 0.00316 µM) was 108%, the viability, T/C (second compound 0.0316 µM, first compound 0.01 µM) was 65.1% and the viability, T/C (second compound 0.0316 µM, first compound 0.0316 µM) was 20.1%. It also gave a viability, T/C (second compound 0.0316 µM, first compound 0.1 µM) of 13%, a viability, T/C (second compound 0.0316 µM, first compound 0.316 µM) of 9.07% and a viability, T/C (second compound 0.0316 µM, first compound 1 µM) of 16.4%. The viability, T/C (second compound 0.1 µM, first compound 0.00316 µM) was 88.9%, the viability, T/C (second compound 0.1 µM, first compound 0.01 µM) was 64% and the viability, T/C (second compound 0.1 µM, first compound 0.0316 µM) was 27%. For the same compound, the viability, T/C (second compound 0.1 µM, first compound 0.1 µM) was 14%, the viability, T/C (second compound 0.1 µM, first compound 0.316 µM) was 13.4% and the viability, T/C (second compound 0.1 µM, first compound 1 µM) was 14.6%. The viability, T/C (second compound 0.316 µM, first compound 0.00316 µM) was 111%, the viability, T/C (second compound 0.316 µM, first compound 0.01 µM) was 39.9% and the viability, T/C (second compound 0.316 µM, first compound 0.0316 µM) was 21%. It also gave a viability, T/C (second compound 0.316 µM, first compound 0.1 µM) of 11.6%, a viability, T/C (second compound 0.316 µM, first compound 0.316 µM) of 14.9% and a viability, T/C (second compound 0.316 µM, first compound 1 µM) of 20.7%. It also gave a viability, T/C (second compound 1 µM, first compound 0.00316 µM) of 90.7%, a viability, T/C (second compound 1 µM, first compound 0.01 µM) of 49% and a viability, T/C (second compound 1 µM, first compound 0.0316 µM) of 25.6%. For the same compound, the viability, T/C (second compound 1 µM, first compound 0.1 µM) was 16.8%, the viability, T/C (second compound 1 µM, first compound 0.316 µM) was 12.6% and the viability, T/C (second compound 1 µM, first compound 1 µM) was 17.6%.
